Experimental data reported in ChEMBL document CHEMBL4376834, “Discovery of 4H-Chromen-4-one Derivatives as a New Class of Selective Rho Kinase (ROCK) Inhibitors, which Showed Potent Activity in ex Vivo Diabetic Retinopathy Models” (J Med Chem, 2019).

Legend:
[1] = Inhibition of human PKA using Kemptide as substrate incubated for 40 mins in presence of [gamma-33P]ATP by radiometric scintillation counting analysis
[2] = target: Rho-associated protein kinase 1 (Homo sapiens, UniProt Q13464); experiment: Inhibition of recombinant human ROCK1 (17 to 535 residues) using […] as substrate incubated for 40 mins in presence of [gamma-33P]ATP and 10 uM ATP by radiometric scintillation counting analysis
[3] = target: Rho-associated protein kinase 2 (Homo sapiens, UniProt O75116); experiment: Inhibition of recombinant human ROCK2 (11 to 552 residues) using KEAKEKRQEQIAKR as substrate incubated for 40 mins in presence of [gamma-33P]ATP and 10 uM ATP by radiometric scintillation counting analysis
Chain of Rho-associated protein kinase 2 (O75116 whole entry, the tested form may be a part): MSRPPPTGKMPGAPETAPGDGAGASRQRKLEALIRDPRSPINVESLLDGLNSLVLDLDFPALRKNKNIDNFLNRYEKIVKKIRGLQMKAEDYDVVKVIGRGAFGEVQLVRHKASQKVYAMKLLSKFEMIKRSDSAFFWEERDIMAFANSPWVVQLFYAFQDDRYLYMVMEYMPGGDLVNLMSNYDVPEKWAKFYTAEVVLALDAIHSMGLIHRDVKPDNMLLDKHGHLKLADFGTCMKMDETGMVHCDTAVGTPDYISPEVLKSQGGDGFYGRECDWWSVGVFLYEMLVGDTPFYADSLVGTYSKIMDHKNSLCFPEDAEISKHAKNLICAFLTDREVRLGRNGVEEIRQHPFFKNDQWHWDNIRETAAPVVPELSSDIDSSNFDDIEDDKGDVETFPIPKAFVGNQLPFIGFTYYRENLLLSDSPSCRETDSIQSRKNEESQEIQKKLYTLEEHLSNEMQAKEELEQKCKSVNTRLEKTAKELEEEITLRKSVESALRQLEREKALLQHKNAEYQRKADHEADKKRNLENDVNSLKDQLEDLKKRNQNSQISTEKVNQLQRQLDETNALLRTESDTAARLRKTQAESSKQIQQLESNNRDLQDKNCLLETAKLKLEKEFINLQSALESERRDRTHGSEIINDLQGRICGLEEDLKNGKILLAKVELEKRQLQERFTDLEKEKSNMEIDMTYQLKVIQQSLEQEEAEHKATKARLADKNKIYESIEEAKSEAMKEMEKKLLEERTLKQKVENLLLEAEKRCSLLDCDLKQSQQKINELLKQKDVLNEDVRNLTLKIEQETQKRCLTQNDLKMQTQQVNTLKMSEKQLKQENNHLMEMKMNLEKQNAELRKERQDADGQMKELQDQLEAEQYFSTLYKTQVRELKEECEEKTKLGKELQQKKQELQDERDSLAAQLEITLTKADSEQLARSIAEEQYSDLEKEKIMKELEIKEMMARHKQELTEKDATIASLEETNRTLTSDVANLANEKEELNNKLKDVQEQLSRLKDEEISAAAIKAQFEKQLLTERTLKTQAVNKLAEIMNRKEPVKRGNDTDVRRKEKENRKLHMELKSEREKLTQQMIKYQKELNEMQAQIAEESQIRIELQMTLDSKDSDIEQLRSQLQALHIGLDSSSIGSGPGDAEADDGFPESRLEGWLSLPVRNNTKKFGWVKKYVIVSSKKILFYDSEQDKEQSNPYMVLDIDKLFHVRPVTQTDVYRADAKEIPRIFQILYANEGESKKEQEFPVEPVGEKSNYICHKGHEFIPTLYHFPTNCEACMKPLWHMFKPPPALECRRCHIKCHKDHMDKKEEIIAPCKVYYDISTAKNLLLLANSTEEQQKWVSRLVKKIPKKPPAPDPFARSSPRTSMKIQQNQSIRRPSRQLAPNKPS

Chain of Rho-associated protein kinase 1 (Q13464 whole entry, the tested form may be a part): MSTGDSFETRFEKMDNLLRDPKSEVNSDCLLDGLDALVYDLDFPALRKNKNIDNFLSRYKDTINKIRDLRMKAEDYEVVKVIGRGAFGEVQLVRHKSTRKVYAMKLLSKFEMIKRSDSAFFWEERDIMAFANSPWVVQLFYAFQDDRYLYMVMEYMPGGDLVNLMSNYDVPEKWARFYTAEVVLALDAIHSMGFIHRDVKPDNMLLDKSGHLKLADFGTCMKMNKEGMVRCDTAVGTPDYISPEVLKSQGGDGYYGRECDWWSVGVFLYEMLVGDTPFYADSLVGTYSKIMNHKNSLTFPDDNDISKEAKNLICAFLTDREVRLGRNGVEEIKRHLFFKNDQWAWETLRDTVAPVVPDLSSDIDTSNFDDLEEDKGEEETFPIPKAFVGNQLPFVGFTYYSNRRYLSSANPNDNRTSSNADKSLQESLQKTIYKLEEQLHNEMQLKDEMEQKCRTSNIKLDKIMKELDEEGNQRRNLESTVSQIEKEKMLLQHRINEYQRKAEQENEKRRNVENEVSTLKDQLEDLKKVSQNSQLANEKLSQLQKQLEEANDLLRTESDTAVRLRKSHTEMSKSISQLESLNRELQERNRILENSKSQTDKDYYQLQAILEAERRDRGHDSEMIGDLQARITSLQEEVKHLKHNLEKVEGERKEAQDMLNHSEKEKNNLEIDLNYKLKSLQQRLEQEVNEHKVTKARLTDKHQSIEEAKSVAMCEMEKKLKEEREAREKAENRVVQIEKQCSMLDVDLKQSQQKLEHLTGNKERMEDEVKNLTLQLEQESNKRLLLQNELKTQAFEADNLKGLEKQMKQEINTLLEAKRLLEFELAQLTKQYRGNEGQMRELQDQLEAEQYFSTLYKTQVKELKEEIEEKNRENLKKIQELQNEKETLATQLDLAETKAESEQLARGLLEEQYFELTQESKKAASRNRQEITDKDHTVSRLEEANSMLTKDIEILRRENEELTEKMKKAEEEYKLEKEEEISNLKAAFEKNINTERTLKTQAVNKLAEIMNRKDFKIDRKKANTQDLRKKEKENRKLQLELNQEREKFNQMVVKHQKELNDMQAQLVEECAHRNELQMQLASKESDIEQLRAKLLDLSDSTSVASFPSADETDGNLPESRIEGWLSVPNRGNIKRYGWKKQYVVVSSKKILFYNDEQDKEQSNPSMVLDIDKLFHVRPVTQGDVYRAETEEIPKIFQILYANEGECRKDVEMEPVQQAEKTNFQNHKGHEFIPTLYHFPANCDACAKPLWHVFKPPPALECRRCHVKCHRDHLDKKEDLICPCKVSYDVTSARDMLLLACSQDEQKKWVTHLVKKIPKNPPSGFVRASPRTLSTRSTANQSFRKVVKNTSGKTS

Row | IC50 [1] | IC50 [2] | IC50 [3] | Compound
1 | > 10000 nM | 528 nM | 41 nM | O=C(COc1ccc2c(=O)ccoc2c1)Nc1cccc(NC(=O)c2cccc([N+](=O)[O-])c2)c1
2 | > 10000 nM | 670 nM | 58 nM | Nc1cccc(C(=O)Nc2cccc(NC(=O)COc3ccc4c(=O)ccoc4c3)c2)c1
3 | > 10000 nM | > 10000 nM | 999 nM | CN(C)c1ccc(C(=O)Nc2ccc(CNC(=O)COc3ccc4c(=O)ccoc4c3)cc2)cc1
4 | > 10000 nM | > 10000 nM | 6890 nM | O=C(COc1ccc2c(=O)ccoc2c1)Nc1cccc(NS(=O)(=O)c2ccc(C(F)(F)F)cc2)c1
5 | > 10000 nM | 160 nM | 10 nM | O=C(COc1ccc2c(=O)ccoc2c1)Nc1cccc(NC(=O)c2cnc(C(F)(F)F)s2)c1
6 | > 10000 nM | 18 nM | 7 nM | COc1ccc(C(=O)Nc2cccc(NC(=O)COc3ccc4c(=O)ccoc4c3)c2)cc1
7 | > 10000 nM | 445 nM | 98 nM | CC(=O)c1ccc(OCC(=O)Nc2cccc(NC(=O)c3ccc(N(C)C)cc3)c2)cc1F
8 | > 10000 nM | 101 nM | 5 nM | CC(C)(C)c1cc(C(=O)Nc2cccc(NC(=O)COc3ccc4c(=O)ccoc4c3)c2)no1
9 | > 10000 nM | 303 nM | 49 nM | O=C(COc1ccc2c(=O)ccoc2c1)Nc1cccc(NC(=O)c2ccc(Br)cc2)c1
10 | > 10000 nM | 3950 nM | 374 nM | Cc1cc(NC(=O)COc2ccc3c(=O)ccoc3c2)cc(NC(=O)c2ccc(N(C)C)cc2)c1C
11 | > 10000 nM | 1430 nM | 176 nM | CCCC(=O)Nc1cccc(NC(=O)COc2ccc3c(=O)ccoc3c2)c1
12 | > 10000 nM | 123 nM | 15 nM | N#Cc1ccc(C(=O)Nc2cccc(NC(=O)COc3ccc4c(=O)ccoc4c3)c2)cc1
13 | > 10000 nM | > 10000 nM | 3530 nM | Cc1ccc(NC(=O)c2ccc(N(C)C)cc2)cc1NC(=O)COc1ccc2c(=O)ccoc2c1
14 | > 10000 nM | 117 nM | 27 nM | CN(C)c1ccc(C(=O)Nc2cccc(NS(=O)(=O)COc3ccc4c(=O)ccoc4c3)c2)cc1
15 | > 10000 nM | 49 nM | 22 nM | CN(C)c1ccc(C(=O)Nc2cc(F)cc(NC(=O)COc3ccc4c(=O)ccoc4c3)c2)cc1
16 | > 10000 nM | 235 nM | 24 nM | CCc1ccc(C(=O)Nc2cccc(NC(=O)COc3ccc4c(=O)ccoc4c3)c2)cc1
17 | > 10000 nM | > 10000 nM | 4160 nM | Cc1c(OCC(=O)Nc2cccc(NC(=O)c3ccc(N(C)C)cc3)c2)ccc2c(=O)ccoc12
18 | > 10000 nM | 183 nM | 22 nM | Cc1ccc(C(=O)Nc2cccc(NC(=O)COc3ccc4c(=O)ccoc4c3)c2)cc1
19 | > 10000 nM | 1820 nM | 652 nM | COc1ccc(OCC(=O)Nc2cccc(NC(=O)c3ccc(N(C)C)cc3)c2)cc1F

Row | IC50 [1] | IC50 [2] | IC50 [3] | Compound
20 | > 10000 nM | > 10000 nM | > 10000 nM | CN(C)c1ccc(C(=O)Nc2cccc(NC(=O)COc3ccc4occc(=O)c4c3)c2)cc1
21 | > 10000 nM | > 10000 nM | 899 nM | CC(C)(C)c1ccc(S(=O)(=O)Nc2cccc(NC(=O)COc3ccc4c(=O)ccoc4c3)c2)cc1
22 | 9340 nM | 67 nM | 15 nM | O=C(COc1ccc2c(=O)ccoc2c1)Nc1cccc(NC(=O)c2ccc([N+](=O)[O-])cc2)c1
23 | > 10000 nM | 473 nM | 33 nM | Cc1nc(C(=O)Nc2cccc(NC(=O)COc3ccc4c(=O)ccoc4c3)c2)cs1
24 | > 10000 nM | 532 nM | 66 nM | NCc1ccc(C(=O)Nc2cccc(NC(=O)COc3ccc4c(=O)ccoc4c3)c2)cc1
25 | > 10000 nM | 2500 nM | 136 nM | CC(=O)Nc1cccc(NC(=O)COc2ccc3c(=O)ccoc3c2)c1
26 | > 10000 nM | 803 nM | 263 nM | CN(C)c1ccc(S(=O)(=O)Nc2cccc(NC(=O)COc3ccc4c(=O)ccoc4c3)c2)cc1
27 | > 10000 nM | 6440 nM | 1280 nM | O=C(COc1ccc2c(=O)ccoc2c1)Nc1cccc(NS(=O)(=O)c2ccc(OC(F)(F)F)cc2)c1
28 | > 10000 nM | > 10000 nM | 7100 nM | CN(C)c1ccc(C(=O)Nc2ccc(NC(=O)COc3ccc4c(=O)ccoc4c3)cc2C(F)(F)F)cc1
29 | > 10000 nM | 802 nM | 83 nM | Nc1ccc(C(=O)Nc2cccc(NC(=O)COc3ccc4c(=O)ccoc4c3)c2)cc1
30 | > 10000 nM | > 10000 nM | 9970 nM | CN(C)c1ccc(C(=O)Nc2cccc(NC(=O)COc3ccc4c(c3)CCC(=O)N4)c2)cc1
31 | > 10000 nM | 17 nM | 9 nM | CCOc1ccc(C(=O)Nc2cccc(NC(=O)COc3ccc4c(=O)ccoc4c3)c2)cc1
32 | > 10000 nM | > 10000 nM | 1340 nM | Cn1ccc(S(=O)(=O)Nc2cccc(NC(=O)COc3ccc4c(=O)ccoc4c3)c2)n1
33 | > 10000 nM | > 10000 nM | > 10000 nM | COc1ccc(OCC(=O)Nc2cccc(NC(=O)c3ccc(N(C)C)cc3)c2)cc1OC
34 | > 10000 nM | 460 nM | 43 nM | Cc1cc(C(=O)Nc2cccc(NC(=O)COc3ccc4c(=O)ccoc4c3)c2)ccc1C(F)(F)F
35 | > 10000 nM | 1050 nM | 302 nM | CN(C)c1ccc(C(=O)Nc2ccc(NC(=O)COc3ccc4c(=O)ccoc4c3)cc2)cc1
36 | > 10000 nM | 6890 nM | 2030 nM | O=C(COc1ccc2c(=O)ccoc2c1)Nc1cccc(NC(=O)c2ccc(C(=O)O)cc2)c1
37 | > 10000 nM | > 10000 nM | > 10000 nM | CN(C)c1ccc(C(=O)Nc2cc(NC(=O)COc3ccc4c(=O)ccoc4c3)cc(C(F)(F)F)c2)cc1
38 | > 10000 nM | 72 nM | 29 nM | COC(=O)c1ccc(C(=O)Nc2cccc(NC(=O)COc3ccc4c(=O)ccoc4c3)c2)cc1

Row | IC50 [1] | IC50 [2] | IC50 [3] | Compound
39 | > 10000 nM | 3740 nM | 306 nM | COc1cc(OCC(=O)Nc2cccc(NC(=O)c3ccc(N(C)C)cc3)c2)ccc1C=O
40 | > 10000 nM | 1040 nM | 169 nM | Cc1ccc(NC(=O)COc2ccc3c(=O)ccoc3c2)cc1NC(=O)c1ccc(N(C)C)cc1
41 | > 10000 nM | 869 nM | 77 nM | O=C(COc1ccc2c(=O)ccoc2c1)Nc1cccc(NC(=O)c2ccc(OC(F)(F)F)cc2)c1
42 | > 10000 nM | 165 nM | 34 nM | CC(C)(C)c1ccc(C(=O)Nc2cccc(NC(=O)COc3ccc4c(=O)ccoc4c3)c2)cc1
43 | > 10000 nM | 144 nM | 85 nM | CN(C)c1ccc(C(=O)Nc2cccc(NC(=O)COc3ccc4c(c3)OCCC4=O)c2)cc1
44 | > 10000 nM | 68 nM | 5 nM | Cc1cc(C(=O)Nc2cccc(NC(=O)COc3ccc4c(=O)ccoc4c3)c2)no1
45 | > 10000 nM | > 10000 nM | 2150 nM | Cc1coc2cc(OCC(=O)Nc3cccc(NC(=O)c4ccc(N(C)C)cc4)c3)ccc2c1=O
46 | > 10000 nM | > 10000 nM | > 10000 nM | CN(C)c1ccc(C(=O)Nc2cccc(NC(=O)COc3ccc4c(c3)OCO4)c2)cc1
47 | > 10000 nM | 143 nM | 14 nM | CCCc1ccc(C(=O)Nc2cccc(NC(=O)COc3ccc4c(=O)ccoc4c3)c2)cc1
48 | > 10000 nM | > 10000 nM | > 10000 nM | CN(C)c1ccc(C(=O)Nc2cccc(NC(=O)COc3ccc4c(c3)OCCO4)c2)cc1
49 | > 10000 nM | > 10000 nM | 3140 nM | CN(C)c1ccc(C(=O)Nc2cccc(NC(=O)COc3ccc4c(c3)NC(=O)CC4)c2)cc1
50 | > 10000 nM | > 10000 nM | 4560 nM | CN(C)c1ccc(C(=O)Nc2cc(Br)cc(NC(=O)COc3ccc4c(=O)ccoc4c3)c2)cc1
51 | > 10000 nM | > 10000 nM | 5740 nM | COc1cccc(OCC(=O)Nc2cccc(NC(=O)c3ccc(N(C)C)cc3)c2)c1
52 | 3260 nM | 120 nM | 16 nM | O=C(COc1ccc2c(=O)ccoc2c1)Nc1cccc(NC(=O)c2ccccc2)c1
53 | > 10000 nM | 129 nM | 54 nM | O=C(COc1ccc2c(=O)ccoc2c1)Nc1cccc(NC(=O)c2ccc(F)cc2)c1
54 | > 10000 nM | > 10000 nM | > 10000 nM | Cc1c(NC(=O)COc2ccc3c(=O)ccoc3c2)cccc1NC(=O)c1ccc(N(C)C)cc1
55 | > 10000 nM | > 10000 nM | > 10000 nM | Cc1cc(NC(=O)COc2ccc3c(=O)ccoc3c2)cc(NC(=O)c2ccc(N(C)C)cc2)c1
56 | > 10000 nM | > 10000 nM | 4210 nM | Cc1cc(NC(=O)COc2ccc3c(=O)ccoc3c2)ccc1NC(=O)c1ccc(N(C)C)cc1
